Literature values, collected in patent publication US11478476B2 (CONTERA PHARMA APS, priority 2014, dated 2022).
Where two headings read alike, the source gives them in different places.

Columns and labels:
[1] = cited from earlier work
[2] = target: T1, human recombinant dopamine D4 receptor (Homo sapiens, UniProt P21917); conditions: saturating concentrations of dopamine; read-out: D4 efficacy IC50 ± SEM; cited from earlier work
T1 sequence (P21917 1-419): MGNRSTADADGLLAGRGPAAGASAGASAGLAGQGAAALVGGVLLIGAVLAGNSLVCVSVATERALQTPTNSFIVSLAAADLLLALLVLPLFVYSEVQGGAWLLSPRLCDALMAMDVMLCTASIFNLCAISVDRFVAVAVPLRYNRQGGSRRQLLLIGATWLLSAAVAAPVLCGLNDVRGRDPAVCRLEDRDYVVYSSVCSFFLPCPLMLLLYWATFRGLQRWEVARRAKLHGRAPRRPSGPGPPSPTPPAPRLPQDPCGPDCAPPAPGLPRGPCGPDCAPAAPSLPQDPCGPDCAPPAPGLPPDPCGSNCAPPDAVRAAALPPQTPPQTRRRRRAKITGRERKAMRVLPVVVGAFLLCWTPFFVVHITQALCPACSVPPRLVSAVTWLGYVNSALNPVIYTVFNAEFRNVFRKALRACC

[3] = target: T2, serotonin 5-HT1A receptor (Rattus norvegicus, UniProt P19327); conditions: rats, intravenous infusions to steady-state plasma levels, cited from earlier work
T2 construct: host or cells: rat brain in vivo (dorsal raphe, hippocampus)
T2 sequence (P19327 1-422): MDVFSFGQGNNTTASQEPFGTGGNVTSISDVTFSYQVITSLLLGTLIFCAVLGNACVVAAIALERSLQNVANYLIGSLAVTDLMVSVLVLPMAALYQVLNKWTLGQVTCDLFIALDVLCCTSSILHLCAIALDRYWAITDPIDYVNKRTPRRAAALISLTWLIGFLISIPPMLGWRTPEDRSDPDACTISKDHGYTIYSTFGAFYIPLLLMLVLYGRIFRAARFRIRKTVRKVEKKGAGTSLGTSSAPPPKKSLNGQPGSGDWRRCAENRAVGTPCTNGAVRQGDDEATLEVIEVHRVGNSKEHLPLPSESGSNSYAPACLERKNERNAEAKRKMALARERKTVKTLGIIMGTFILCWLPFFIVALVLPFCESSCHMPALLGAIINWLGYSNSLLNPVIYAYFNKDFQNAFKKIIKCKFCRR

[4] = target: human recombinant dopamine D3 receptor (Homo sapiens, UniProt P35462); conditions: read-out: D3 affinity Ki ± SEM; cited from earlier work
[5] = human volunteers, cited from earlier work
[6] = oral administration of buspirone, analyte = label (6-OH-Busp: total, both enantiomers)
[7] = oral administration of racemic 6-OH-Busp, exposure of 6-OH-Busp

human recombinant dopamine D3 receptor, sequence (P35462 whole entry): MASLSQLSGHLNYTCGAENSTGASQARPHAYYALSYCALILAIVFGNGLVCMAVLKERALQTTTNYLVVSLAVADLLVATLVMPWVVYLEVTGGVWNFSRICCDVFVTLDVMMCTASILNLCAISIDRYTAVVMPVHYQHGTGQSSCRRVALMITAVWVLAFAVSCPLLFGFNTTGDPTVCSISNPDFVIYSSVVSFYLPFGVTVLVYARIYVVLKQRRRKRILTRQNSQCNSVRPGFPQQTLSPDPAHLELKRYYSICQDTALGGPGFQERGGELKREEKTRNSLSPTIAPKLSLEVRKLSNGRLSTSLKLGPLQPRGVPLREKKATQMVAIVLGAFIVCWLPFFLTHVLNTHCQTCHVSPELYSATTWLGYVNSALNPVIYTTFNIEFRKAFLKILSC

O=C1CC2(CCCC2)C(O)C(=O)N1CCCCN1CCN(c2ncccn2)CC1 (racemic) [6-OH-Busp]
exposure (area under the concentration-time profile) of metabolite relative to parent compound ([1]; oral dosing of buspirone in rats): 12 fold | Bioavailability ([1]; rats): 19% | plasma half-life ([1]; rats): 1.2 ± 0.2 h | IC50 [2]: 850 ± 490 nM | EC50 ([3]; dorsal raphe (presynaptic), read-out: 5-HT1A receptor occupancy EC50, dorsal raphe): 1000 ± 300 nM | EC50 ([3]; hippocampus (postsynaptic), read-out: 5-HT1A receptor occupancy EC50, hippocampus): 4000 ± 600 nM | Ki [4]: 795 ± 84 nM | half-life (T½) ([5]; after administration of either parent buspirone or 6-OH-Busp): longer than that of buspirone | AUC0-INF [5, 6]: 52.93 ngxh/ml | Cmax [5, 6]: 9.12 ng/mL | AUC0-INF [5, 7]: 131.52 ngxh/ml | Cmax [5, 7]: 25.63 ng/mL
